Test results as given in US10124065B2, “Lipids and lipid compositions for the delivery of active agents” (Novartis AG, priority 2013, dated 2018).

Columns and labels:
human leptin [1] = assay: Mouse intravenous tail vein injection of modified synthetic leptin mRNA, human leptin ELISA; format: in vivo, C57BL/6 mouse; settings: human leptin in mouse plasma, 10 μg leptin mRNA, 24 h
Protocol: Before the tail vein injection, mouse body weights were recorded and diet weighted, with mice grouped according to their body weights. Mice were prepared by warming them under a heating lamp for ˜2 minutes, with the mice about 12 inches from heat lamp.
For the tail vein injection procedure, the mice were placed in a restrainer and their tails cleaned with 70% alcohol. A 27 gauge needle (Becton Dickinson, Catalogue #305109) connected with a 1 ml syringe (Becton Dickinson, Catalogue #309659) was inserted into the tail vein, with bevel facing up, and the syringe plunger was pulled backwards to ensure blood is drawn into the syringe. The desired volume of modified synthetic leptin mRNA was injected by hand with moderate pressure and speed. The needle was then withdrawn and bleeding stopped by adding pressure to injection site with gauze.
(§1) Single housed, 8-9 week old, male C57BL/6 mice were used for the in vivo study. FPLC purified modified synthetic leptin mRNA (SEQ ID NO: 5) in which the uridines were substituted with pseudouridine was packaged in a cationic lipid (N:P molar ratio=8:1) and then were diluted in injectable saline at a dose of 10 μg per average group body weight.
On day 0, animals were weighed and sorted according to average body weight. Mice were dosed, and food intake (FI) was recorded, on each of days 1-7 and days 9, 11, and 16.
(§2) Human leptin in mouse plasma was measured by ELISA. Antibodies purchased from the R&D Systems duoset (Cat# DY398E, part#840279 for capture antibody and part#840280 for detection antibody) were reconstituted using PBS and titered, again using PBS. The capture antibody was coated at 4 ug/ml in 30 ul/well on a white Nunc® Maxisorp 384 well plate (Cat#460372). After an overnight incubation at room temperature the capture antibody was aspirated and the plate blocked for 2 hours at room temperature with 90 ul/well of KPL milk blocker (Cat#50-82-00). Once the incubation was completed the plate was aspirated and recombinant standards and samples were added to the plate at 30 ul/well for 2 hours at 37° C. while shaking at 600 rpm. Sample/standard dilutions were made using casein sample diluent. Washing/aspiration 3 times with 100 ul/well followed, using Teknova plate wash solution (Cat# P1192). Next, detection antibody was diluted using casein detection antibody diluent to 12.5 ng/ml and added at 30 ul/well for 2 hours room temperature. After this incubation, the plate was washed again and a solution of poly-streptavidin-HRP (Cat#21140) at a 1:1250 dilution in HRP dilution buffer was added to each well (30 ul/well) and incubated for 30 minutes room temperature. A final wash/aspiration removed the HRP solution and a chemiluminescent substrate was added at 30 ul/well (Cat#1859678 & 1859679). The plate was quickly read using a SpectramaxM5 plate reader with a 50 ms integration time. The dynamic range of the ELISA is from 100-2,000 pg/ml (6.25-125 pM) of human leptin.

PLK-1 mRNA = assay: LS411N Xenograft Assay; format: in vivo, Nu/Nu mice; settings: percent knock down of PLK-1 mRNA vs control in LS411N tumors, IV 3 mg/kg daily for three days
Protocol: Female Nu/Nu mice (6-8 weeks old) were implanted subcutaneously with 5×10^6 LS411N cells. Tumor growth was monitored by caliper measurement before treatment initiation. Mice bearing 150-250 mm^3 subcutaneous tumors were randomized and enrolled in the study. The stock siRNA formulations were diluted to […] with PBS for dosing. Animals enrolled in different groups received a single daily bolus IV injection of 3 mg/kg siRNA for three days. Tumors were harvested 24 hours post last injection to assess target gene regulation by qRT-PCR.
Lipid nanoparticles comprising lipid compounds of formula (I) and the PLK1-424 siRNA duplex sequence listed above were tested in the LS411N Xenograft Assay. The results of this assay are given in Table 5 below as a percent knock down of PLK-1 mRNA as compared to the control when administered as a single daily dose for three days at a dose of 3 mg/kg.

human leptin [2] = assay: Mouse subcutaneous injection of modified synthetic leptin mRNA, human leptin ELISA; format: in vivo; settings: human leptin in mouse plasma, 10 μg leptin mRNA
Protocol: Prior to subcutaneous injection, mouse body weights were recorded and diet weighted, with mice grouped according to their body weights. The mice were manually restrained and placed on a work surface. Their scruffs were pinched and lifted away from the underlying muscle, the space into which was inserted a 25 gauge needle connected with a 1 ml syringe. The syringe plunger was pulled backwards in such a way as to ensure no fluid was drawn into the syringe, and then the desired volume of leptin mRNA was hand injected with moderate pressure and speed. The needle was then withdrawn and the mice returned to their cages.
as §1, with “8-9” for “Single housed, 8-9”, “pseudouridine” for “pseudouridine was packaged in a cationic lipid”, “packaged in multiple cationic lipid” for “and then”
On day 0, animals were weighed and sorted according to average body weight. ice were dosed at 9 AM and blood was taken at 9 AM on day 0. Blood was also taken at 9 AM on each of days 1 and 2 and assessed for leptin protein levels. Body weight and food intake were also recorded.
as §2, with “leptin. The assay is applicable to plasma from mice, rats and cynomolgus monkeys.” for “leptin.”

[3] = tested on: plasma Factor VII enzyme activity; assay: Mouse Factor VII dosing / Factor VII Activity Assay; format: in vivo; settings: percent knock down of plasma Factor VII activity, CD-1 mice, 48 h; for KD FVII 0.03 mg/kg: single IV dose 0.03 mg/kg; for KD FVII 0.3 mg/kg: single IV dose 0.3 mg/kg
Procedure, shortened: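 Female CD-1 mice (~25 g) received a single IV tail-vein dose of lipid-nanoparticle-formulated Factor VII siRNA (0.3 or 0.03 mg/kg). Plasma taken ~48 h later; FVII activity measured chromogenically against vehicle-control plasma standard curve, reported as % knockdown.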

[4] = Particle size of lipid nanoparticle (dynamic light scattering, Malvern Zetasizer); format: physicochemical
Procedure, shortened: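 Sizes are average diameters of fully formed nanoparticles measured by dynamic light scattering. Samples were diluted in PBS to a count rate of about 200–400 kcts. Values are intensity-weighted Z-average sizes.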

[5] = Polydispersity index (PDI) of lipid nanoparticle (dynamic light scattering); format: physicochemical
Protocol: Unless indicated otherwise, all PDIs referred to herein are the PDI of the fully formed nanoparticle, as measured by dynamic light scattering on a Malvern Zetasizer. The nanoparticle sample was diluted in phosphate buffered saline (PBS) so that the count rate was approximately 200-400 kcts. The data is presented in Tables 4 and 5 as a weighted average of the intensity measure.

[6] = LNP Chol/DSPC/PEG-DMG 45/44/9/2
[7] = LNP Chol/DSPC/PEG-DSG 45/44/9/2
[8] = FVII siRNA LNP, Chol/DSPC/S010, molar ratio 45/44/9/2, Z-average
[9] = PLK1-424 siRNA LNP, Chol/DSPC/PEG-DSG 45/44/9/2
[10] = FVII siRNA LNP, Chol/DSPC/S010, molar ratio 45/44/9/2
[11] = PLK1-424 siRNA LNP, Chol/DSPC/S010 45/44/9/2

## CCCCC/C=C\C/C=C\CCCCCCCC(=O)OCCCOc1cc(CN(C)C)cc(OCCCOC(=O)CCCCCCC/C=C\C/C=C\CCCCC)c1 [Example 39, (9Z,9′Z,12Z,12′Z)-((5-((dimethylamino)methyl)-1,3-phenylene)bis(oxy))bis(propane-3,1-diyl)bis(octadeca-9,12-dienoate)]
Human leptin [1]
  Leptin expression IV-C57BI/6, 24 h: 10.47 ng/mL
PLK-1 mRNA; LNP Chol/DSPC/S010 45/44/9/2
  LS411 KD 3 × 3 mg/Kg: 55%
Human leptin [2]
  Leptin expression SC-C57BI/6, 24 h: 0.79 ng/mL

## CCCCCCCC(=O)OCCCCCCCCOc1cc(CN(C)C)cc(OCCCCCCCCOC(=O)CCCCCCC)c1 [Example 42, ((5-((dimethylamino)methyl)-1,3-phenylene)bis(oxy))bis(octane-8,1-diyl)dioctanoate]
PLK-1 mRNA; LNP Chol/DSPC/S010 45/44/9/2
  LS411 KD 3 × 3 mg/Kg: 50%
[3]; LNP Chol/DSPC/S010 45/44/9/2
  KD FVII 0.03 mg/kg: 92.8%

## CCCCCCCC(=O)OCCCCCCCCCCOc1cc(CN(C)C)cc(OCCCCCCCCCCOC(=O)CCCCCCC)c1 [Example 43, ((5-((dimethylamino)methyl)-1,3-phenylene)bis(oxy))bis(decane-10,1-diyl)dioctanoate]
Human leptin [1]
  Leptin expression IV-C57BI/6, 24 h: 13.56 ng/mL
PLK-1 mRNA; LNP Chol/DSPC/S010 45/44/9/2
  LS411 KD 3 × 3 mg/Kg: 40%
Human leptin [2]
  Leptin expression SC-C57BI/6, 24 h: 0.66 ng/mL
[3]; [6]
  KD FVII 0.3 mg/kg: 97.4%

## CCCCCCCCCC(=O)OCCCCCCCCOc1cc(CN(C)C)cc(OCCCCCCCCOC(=O)CCCCCCCCC)c1 [Example 52, ((5-((dimethylamino)methyl)-1,3-phenylene)bis(oxy))bis(octane-8,1-diyl)bis(decanoate)]
Human leptin [1]
  Leptin expression IV-C57BI/6, 24 h: 21.18 ng/mL
PLK-1 mRNA; [7]
  LS411 KD 3 × 3 mg/Kg: 69%
PLK-1 mRNA; LNP Chol/DSPC/S010 45/44/9/2
  LS411 KD 3 × 3 mg/Kg: 50%
Human leptin [2]
  Leptin expression SC-C57BI/6, 24 h: 0.85 ng/mL
[3]; [6]
  KD FVII 0.03 mg/kg: 72.5%
[3]; LNP Chol/DSPC/S010 45/44/9/2
  KD FVII 0.03 mg/kg: 73.5%

## CCCCCCCCCCCC(=O)OCCCCCCOc1cc(CN(C)C)cc(OCCCCCCOC(=O)CCCCCCCCCCC)c1 [Example 59, ((5-((dimethylamino)methyl)-1,3-phenylene)bis(oxy))bis(hexane-6,1-diyl)didodecanoate]
Human leptin [1]
  Leptin expression IV-C57BI/6, 24 h: 8.08 ng/mL
Human leptin [2]
  Leptin expression SC-C57BI/6, 24 h: 1.16 ng/mL
[3]; LNP Chol/DSPC/S010 45/44/9/2
  KD FVII 0.03 mg/kg: 48.24%

## CCCCC/C=C\C/C=C\CCCCCCCC(=O)OCCCCOc1cc(CN(C)C)cc(OCCCCOC(=O)CCCCCCC/C=C\CCCCCCCC)c1 [Example 63, (9Z,12Z)-4-(3-((dimethylamino)methyl)-5-(4-(oleoyloxy)butoxy)phenoxy)butyl octadeca-9,12-dienoate]
[4]; [8]
  Size (nm): 91.66 nm
[4]; [9]
  Size (nm): 108.6 nm
[5]; [10]
  PDI: 0.057
[5]; [9]
  PDI: 0.047
PLK-1 mRNA; [7]
  LS411 KD 3 × 3 mg/Kg: 66%
[3]; LNP Chol/DSPC/S010 45/44/9/2
  KD FVII 0.03 mg/kg: 75%

## CCCCCCCC(=O)OCC(CCOc1cc(CN(C)C)cc(OCCC(COC(=O)CCCCCCC)OC(=O)CCCCCCC)c1)OC(=O)CCCCCCC (centres unmarked) [Example 91, 4,4′-((5-((dimethylamino)methyl)-1,3-phenylene)bis(oxy))bis(butane-1,2-diyl)tetraoctanoate]
[4]; FVII siRNA LNP, Chol/DSPC/PEG-DMG, molar ratio 45/44/9/2, Z-average
  Size (nm): 124.3 nm
[4]; [8]
  Size (nm): 111.9 nm
[4]; [11]
  Size (nm): 136.1 nm
[5]; FVII siRNA LNP, Chol/DSPC/PEG-DMG, molar ratio 45/44/9/2
  PDI: 0.06
[5]; [10]
  PDI: 0.053
[5]; [11]
  PDI: 0.032
PLK-1 mRNA; LNP Chol/DSPC/S010 45/44/9/2
  LS411 KD 3 × 3 mg/Kg: 45%
[3]; [6]
  KD FVII 0.3 mg/kg: 99.0%
